In the oligonucleotide strings, read from the 5' end, every base follows the letter of its sugar. An asterisk marks phosphorothioate; unmarked linkages are phosphodiester. Other units and linkages are bracketed, terminal groups are in braces. A string of capitals states the bases alone. d = 2'-deoxy (DNA); m = 2'-O-methyl
Biological target: T1, TLR8 (Homo sapiens, UniProt Q9NR97)
T1 sequence (Q9NR97 27-1041): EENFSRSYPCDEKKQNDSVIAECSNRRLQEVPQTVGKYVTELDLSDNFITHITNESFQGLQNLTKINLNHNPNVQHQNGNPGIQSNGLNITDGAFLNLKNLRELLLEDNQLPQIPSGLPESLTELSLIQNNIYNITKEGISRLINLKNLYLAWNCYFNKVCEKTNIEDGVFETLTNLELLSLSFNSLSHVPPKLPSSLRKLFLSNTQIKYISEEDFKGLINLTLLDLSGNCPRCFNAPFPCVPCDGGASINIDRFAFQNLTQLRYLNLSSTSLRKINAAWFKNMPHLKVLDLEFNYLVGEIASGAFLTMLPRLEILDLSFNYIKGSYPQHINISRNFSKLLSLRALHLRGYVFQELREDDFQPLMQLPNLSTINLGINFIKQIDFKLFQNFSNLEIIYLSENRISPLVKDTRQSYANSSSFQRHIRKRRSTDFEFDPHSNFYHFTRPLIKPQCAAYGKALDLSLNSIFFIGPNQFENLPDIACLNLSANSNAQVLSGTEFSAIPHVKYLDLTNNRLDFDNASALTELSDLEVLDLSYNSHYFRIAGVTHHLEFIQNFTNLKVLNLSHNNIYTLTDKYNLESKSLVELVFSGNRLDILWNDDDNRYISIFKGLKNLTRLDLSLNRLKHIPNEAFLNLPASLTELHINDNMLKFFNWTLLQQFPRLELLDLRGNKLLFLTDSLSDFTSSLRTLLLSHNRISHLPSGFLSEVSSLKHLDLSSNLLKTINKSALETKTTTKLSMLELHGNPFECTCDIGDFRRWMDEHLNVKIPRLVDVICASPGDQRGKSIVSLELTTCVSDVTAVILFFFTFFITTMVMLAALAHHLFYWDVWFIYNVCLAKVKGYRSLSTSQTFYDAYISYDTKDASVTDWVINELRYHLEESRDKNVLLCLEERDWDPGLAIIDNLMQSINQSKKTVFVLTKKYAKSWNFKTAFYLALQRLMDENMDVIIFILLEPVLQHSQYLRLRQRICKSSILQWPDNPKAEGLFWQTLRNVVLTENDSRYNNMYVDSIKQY
Experiment: HEK-TLR8 NF-κB-luciferase reporter, R848 or Motolimod stimulation (potentiation or inhibition)
Assay type: cell-based
Set-up: expressed in transfected cells; host or cells: 293XLhTLR8 (HEK293)
Details: HEK-TLR8; 500 nM ASO; fold increase relative to R848 without ASO (Alharbi et al., 2020)

Row | Substance | TLR8-500 nM: averaged NF-κB-Luciferase relative to R848
1 | mC*mA*mU*mC*mC*C*T*T*C*T*G*C*T*G*C*mC*mA*mA*mG*mC (mC*mA*mU*mC*mC*dC*dT*dT*dC*dT*dG*dC*dT*dG*dC*mC*mA*mA*mG*mC; antisense) [[LINC-PINT]98] | 8.23 fold
2 | mC*mC*mA*mU*mC*C*C*T*T*C*T*G*C*T*G*mC*mC*mA*mA*mG (mC*mC*mA*mU*mC*dC*dC*dT*dT*dC*dT*dG*dC*dT*dG*mC*mC*mA*mA*mG; antisense) [ILING-PINT199] | 5.67 fold
3 | mC*mC*mA*mU*mG*T*C*C*C*A*G*G*C*C*T*mC*mC*mA*mG*mU (CCAUGTCCCAGGCCTCCAGU; sugars from the 5' end m5 d10 m5, all phosphorothioate, methylation of C not given here) [[CDKN2B-AS1]2227] | 1.46 fold
4 | mC*mC*mC*mU*mA*A*T*G*C*T*T*T*C*C*T*mC*mU*mC*mC*mA (mC*mC*mC*mU*mA*dA*dT*dG*dC*dT*dT*dT*dC*dC*dT*mC*mU*mC*mC*mA; antisense) [[LINC-PINT1877 KL] | 8.39 fold
5 | mC*mC*mC*mU*mU*C*T*C*T*C*T*G*G*T*C*mC*mC*mA*mU*mC (mC*mC*mC*mU*mU*dC*dT*dC*dT*dC*dT*dG*dG*dT*dC*mC*mC*mA*mU*mC; antisense) [[LINC-PINT]114] | 8.12 fold
6 | mC*mC*mU*mA*mG*A*A*A*G*A*A*G*C*A*A*mA*mG*mA*mU*mU (mC*mC*mU*mA*mG*dA*dA*dA*dG*dA*dA*dG*dC*dA*dA*mA*mG*mA*mU*mU) [[CDKN2B-AS1]1522] | 4.94 fold
7 | mC*mC*mU*mU*mC*T*C*T*C*T*G*GT*C*C*mC*mA*mU*mC*mC (CCUUCTCTCTGGTCCCAUCC; antisense; chemistry not fully specified) [[LINC-PINT]113] | 3.51 fold
8 | mC*mC*mU*mU*mC*T*G*C*T*G*C*C*A*A*G*mC*mC*mC*mC*mA (mC*mC*mU*mU*mC*dT*dG*dC*dT*dG*dC*dC*dA*dA*dG*mC*mC*mC*mC*mA; antisense) [[LINC-PINT]94] | 3.71 fold
9 | mC*mU*mC*mU*mC*T*G*G*T*C*C*C*A*T*C*mC*mC*mU*mU*mC (mC*mU*mC*mU*mC*dT*dG*dG*dT*dC*dC*dC*dA*dT*dC*mC*mC*mU*mU*mC; antisense) [[LINC-PINT]109] | 10.10 fold
10 | mC*mU*mU*mC*mU*C*T*C*T*G*G*T*C*C*C*mA*mU*mC*mC*mC (mC*mU*mU*mC*mU*dC*dT*dC*dT*dG*dG*dT*dC*dC*dC*mA*mU*mC*mC*mC) [[LINC-PINT]112] | 9.21 fold
11 | mC*mU*mU*mU*mA*T*A*T*T*A*C*A*A*A*G*mC*mU*mA*mC*mU (mC*mU*mU*mU*mA*dT*dA*dT*dT*dA*dC*dA*dA*dA*dG*mC*mU*mA*mC*mU; antisense) [[LINC-PINT]2755] | 6.37 fold
12 | mG*mA*mA*mA*mA*G*A*T*T*A*T*C*T*T*C*mU*mU*mU*mU*mA (GAAAAGATTATCTTCUUUUA; sugars from the 5' end m5 d10 m5, all phosphorothioate, methylation of C not given here) [[CDKN2B-AS1]2134] | 1.87 fold
13 | mG*mA*mU*mG*mG*T*T*C*C*A*G*T*C*C*C*mU*mC*mU*mU*mC (GAUGGTTCCAGTCCCUCUUC; antisense; sugars from the 5' end m5 d10 m5, all phosphorothioate, methylation of C not given here) [[LINC-PINT]1497.1] | 1.01 fold
14 | mG*mA*mU*mU*mA*A*A*A*C*A*G*A*T*T*A*mA*mU*mA*mC*mA (mG*mA*mU*mU*mA*dA*dA*dA*dC*dA*dG*dA*dT*dT*dA*mA*mU*mA*mC*mA) [[CDKN2B-AS1]1773] | 1.48 fold
15 | mG*mC*mA*mA*mG*G*C*A*G*A*G*A*A*A*C*mU*mC*mC*mA*mG (GCAAGGCAGAGAAACUCCAG; sugars from the 5' end m5 d10 m5, all phosphorothioate, methylation of C not given here) [[LINC-PINT]1315 KL] | 2.69 fold
16 | mG*mC*mG*mU*mA*G*T*T*T*C*T*C*T*T*C*mC*mU*mC*mC*mC (GCGUAGTTTCTCTTCCUCCC; sugars from the 5' end m5 d10 m5, all phosphorothioate, methylation of C not given here) [[LINC-PINT]935 KL] | 4.12 fold
17 | mG*mG*mA*mU*mU*A*A*A*A*C*A*G*A*T*T*mA*mA*mU*mA*mC (GGAUUAAAACAGATTAAUAC; sugars from the 5' end m5 d10 m5, all phosphorothioate, methylation of C not given here) [[CDKN2B-AS1]1774] | 1.67 fold
18 | mG*mG*mG*mU*mC*T*C*C*T*C*C*A*C*A*C*mC*mC*mU*mU*mC (GGGUCTCCTCCACACCCUUC; antisense; sugars from the 5' end m5 d10 m5, all phosphorothioate, methylation of C not given here) [[LINC-PINT]128] | 1.23 fold
19 | mG*mG*mU*mC*mC*C*A*T*C*C*C*T*T*C*T*mG*mC*mU*mG*mC (GGUCCCATCCCTTCTGCUGC; sugars from the 5' end m5 d10 m5, all phosphorothioate, methylation of C not given here) [[LINC-PINT]103] | 1.87 fold
20 | mG*mG*mU*mC*mU*C*C*T*C*C*A*C*A*C*C*mC*mU*mU*mC*mU (mG*mG*mU*mC*mU*dC*dC*dT*dC*dC*dA*dC*dA*dC*dC*mC*mU*mU*mC*mU; antisense) [[LINC-PINT]127] | 3.72 fold
21 | mG*mG*mU*mG*mG*C*C*A*C*A*G*G*C*A*A*mC*mG*mU*mC*mA (GGUGGCCACAGGCAACGUCA; antisense; sugars from the 5' end m5 d10 m5, all phosphorothioate, methylation of C not given here) [[CDKN2B-AS1]2196] | 0.98 fold
22 | mG*mU*mC*mA*mA*A*C*C*T*A*G*A*A*A*G*mA*mA*mG*mC*mA (mG*mU*mC*mA*mA*dA*dC*dC*dT*dA*dG*dA*dA*dA*dG*mA*mA*mG*mC*mA; antisense) [[CDKN2B-AS1]1528] | 1.85 fold
23 | mG*mU*mC*mC*mC*A*G*G*C*C*T*C*C*A*G*mU*mG*mU*mC*mU (mG*mU*mC*mC*mC*dA*dG*dG*dC*dC*dT*dC*dC*dA*dG*mU*mG*mU*mC*mU; antisense) [[CDKN2B-AS1]2223] | 2.17 fold
24 | mG*mU*mC*mC*mC*A*T*C*C*C*T*T*C*T*G*mC*mU*mG*mC*mC (GUCCCATCCCTTCTGCUGCC; antisense; sugars from the 5' end m5 d10 m5, all phosphorothioate, methylation of C not given here) [[LINC-PINT]102] | 5.07 fold
25 | mG*mU*mC*mC*mG*T*A*C*C*T*C*C*A*C*C*mC″mA*mC*mC*mG [[LINC-PINT]727.1] | 3.70 fold
26 | mG*mU*mC*mU*mC*C*T*C*C*A*C*A*C*C*C*mU*mU*mC*mU*mC (mG*mU*mC*mU*mC*dC*dT*dC*dC*dA*dC*dA*dC*dC*dC*mU*mU*mC*mU*mC; antisense) [[LINC-PINT]126] | 7.17 fold
